Laboratory results published in patent publication US11072628B2, “Nucleoside analogues for the treatment of parasitic infections” (UNIVERSITEIT GENT, priority 2017, dated 2021).
Where two headings read alike, the source gives them in different places.

Experiments:
[1] = tested on: T. cruzi Tulahuen CL2 β galactosidase strain; experiment: T. cruzi Tulahuen CL2 β galactosidase strain on MRC-5SV2 cells (CPRG); assay type: cell-based, Trypanosoma cruzi
Method: All cultures and assays were conducted at 37° C./5% CO2. […] The results were expressed as % reduction in parasite burdens compared to control wells from which an EC50 was calculated.

[2] = tested on: T. b. rhodesiense STIB-900; experiment: In vitro drug susceptibility, T. b. rhodesiense STIB-900 (resazurin); assay type: cell-based, Trypanosoma brucei rhodesiense
Method: (§1) All trypanosome strains were cultured in the standard HMI-9 medium supplemented with 10% fetal bovine serum (FBS) at 37° C. in a 5% CO2 atmosphere.

MRC-5 fibroblasts = experiment: in vitro
Method: (§2) Cytotoxicity was assayed against MRC-5 fibroblasts. Results are depicted in Tables 4 and 5.

T. brucei Squib 427 = experiment: In vitro drug susceptibility, T. brucei Squib 427 (resazurin); assay type: cell-based, Trypanosoma brucei brucei
Method: as §1

[3] = Cytotoxicity against MRC-5 fibroblasts; conditions: human, MRC-5 fibroblasts, MRC-5 EC50, Table 2; cytotoxicity
Method: as §2

[4] = Table 2, average of 2-3 independent replicates
[5] = Table 1, average of 2-4 independent determinations, read-out: T. brucei rhod. EC50
[6] = Table 1, average of 2-4 independent determinations, read-out: T. brucei brucei EC50
[7] = Trypanosoma cruzi, TULAHUEN, MRC-5 SV2, Table 2, average of 2-3 independent replicates

## Nc1ncnc2c1c(-c1ccccc1)cn2[C@@H]1O[C@H](CO)C[C@H]1O [FH8480, 4-amino-5-phenyl-N7-(3′-deoxy-β-D-ribofuranosyl)-pyrrolo[2,3-d]pyrimidine]
[1]; [4]
  EC50: 2.57 µM
[2]; [5]
  EC50: 1.2 µM
MRC-5 fibroblasts
  EC50: 61.8 µM
T. brucei Squib 427; [6]
  EC50: 7.9 µM

## C[C@@H]1C[C@@H](O)[C@H](n2cc(Br)c3c(N)ncnc32)O1 [FH8492, 4-amino-5-bromo-N7-(3′-5′-dideoxy-β-D-ribofuranosyl)-pyrrolo[2,3-d]pyrimidine]
[1]; [4]
  EC50: 12 µM
[2]; [5]
  EC50: 20.1 µM
MRC-5 fibroblasts
  EC50: 10.2 µM
T. brucei Squib 427; [6]
  EC50: 33.5 µM

## COc1ncnc2c1c(Br)cn2[C@@H]1O[C@H](CO)C[C@H]1O [FH8497, 4-methoxy-5-bromo-N7-(3′-deoxy-β-D-ribofuranosyl)-pyrrolo[2,3-d]pyrimidine]
[1]; [4]
  EC50: > 64 µM
[2]; [5]
  EC50: 3.7 µM
MRC-5 fibroblasts
  EC50: 2.7 µM
T. brucei Squib 427; [6]
  EC50: 2.62 µM

## O=c1[nH]cnc2c1c(Br)cn2[C@@H]1O[C@H](CO)C[C@H]1O [FH8500, 4-oxo-5-bromo-N7-(3′-deoxy-β-D-ribfuranosyl)-pyrrolo[2,3-d]pyrimidine]
[1]; [4]
  EC50: > 64 µM
[2]; [5]
  EC50: 2.26 µM
MRC-5 fibroblasts
  EC50: > 64 µM
T. brucei Squib 427; [6]
  EC50: 8.09 µM

## Nc1ncnc2c1c(-c1ccccn1)cn2[C@@H]1O[C@H](CO)C[C@H]1O [FH8502, 4-amino-5-(pyrid-2-yl)-N7-(3′-deoxy-β-D-ribfuranosyl)-pyrrolo[2,3-d]pyrimidine]
[1]; [4]
  EC50: 40.8 µM
[2]; [5]
  EC50: 37.3 µM
MRC-5 fibroblasts
  EC50: 33.7 µM
T. brucei Squib 427; [6]
  EC50: 7.6 µM

## CSc1ncnc2c1c(Br)cn2[C@@H]1O[C@H](CO)C[C@H]1O [FH8510, 4-thiomethyl-5-bromo-N7-(3′-deoxy-β-D-ribofuranosyl)-pyrrolo[2,3-d]pyrimidine]
[1]; [4]
  EC50: 35.8 µM
[2]; [5]
  EC50: 4.34 µM
MRC-5 fibroblasts
  EC50: 0.29 µM
T. brucei Squib 427; [6]
  EC50: 1.68 µM

## CNc1ncnc2c1c(Br)cn2[C@@H]1O[C@H](CO)C[C@H]1O [FH8516, 4-methylamino-5-bromo-N7-(3′-deoxy-β-D-ribofuranosyl)-pyrrolo[2,3-d]pyrimidine]
[1]; [4]
  EC50: > 64 µM
[2]; [5]
  EC50: 8.25 µM
MRC-5 fibroblasts
  EC50: > 64 µM
T. brucei Squib 427; [6]
  EC50: 6.21 µM

## CSC[C@@H]1C[C@@H](O)[C@H](n2cc(Br)c3c(N)ncnc32)O1 [FH9527, 4-amino-5-bromo-N7-(3′-deoxy-5′-thiomethyl-β-D-ribofuranosyl)-pyrrolo[2,3-d]pyrimidine]
[1]; [4]
  EC50: 25 µM
[2]; [5]
  EC50: 22.3 µM
MRC-5 fibroblasts
  EC50: 15.3 µM
T. brucei Squib 427; [6]
  EC50: 32.5 µM

## OC[C@@H]1C[C@@H](O)[C@H](n2cc(Br)c3c(Cl)ccnc32)O1 [FH9540, 3-bromo-4-chloro-N1-(3′-deoxy-β-D-ribofuranosyl)-pyrrolo[2,3-b]pyridine]
[1]
  EC50: 15 µM
[2]; [5]
  EC50: 28.9 µM
MRC-5 fibroblasts
  EC50: 27.2 µM
T. brucei Squib 427; [6]
  EC50: 14.8 µM

## OC[C@@H]1C[C@@H](O)[C@H](n2ccc3c(Cl)ccnc32)O1 [FH9541, 4-chloro-N1-(3′-deoxy-β-D-ribofuranosyl)-pyrrolo[2,3-b]pyridine]
[1]
  EC50: > 64 µM
[2]; [5]
  EC50: 7.97 µM
MRC-5 fibroblasts
  EC50: > 64 µM
T. brucei Squib 427; [6]
  EC50: 31.2 µM

## Nc1ccnc2c1c(Br)cn2[C@@H]1O[C@H](CO)C[C@H]1O [FH9549, 3-bromo-4-amino-N1-(3′-deoxy-β-D-ribofuranosyl)-pyrrolo[2,3-b]pyridine]
[1]
  EC50: > 64 µM
[2]; [5]
  EC50: > 64 µM
MRC-5 fibroblasts
  EC50: > 64 µM
T. brucei Squib 427; [6]
  EC50: 35.2 µM

## Nc1ccnc2c1ccn2[C@@H]1O[C@H](CO)C[C@H]1O [FH9550, 4-amino-N1-(3′-deoxy-β-D-ribofuranosyl)-pyrrolo[2,3-b]pyridine]
[1]
  EC50: > 64 µM
[2]; [5]
  EC50: 30.8 µM
MRC-5 fibroblasts
  EC50: > 64 µM
T. brucei Squib 427; [6]
  EC50: > 64 µM

## Nc1ncnc2c1c(Br)cn2[C@@H]1OC(CO)(CO)C[C@H]1O [FH9561, 4-amino-5-bromo-N7-(3′-deoxy-4′-hydroxymethyl-β-D-ribofuranosyl)-pyrrolo[2,3-d]pyrimidine]
[1]; [4]
  EC50: > 64 µM
[2]; [5]
  EC50: 5.6 µM
MRC-5 fibroblasts
  EC50: > 64 µM
T. brucei Squib 427; [6]
  EC50: 26.8 µM

## CC(C)c1ccc(-c2cn([C@@H]3O[C@H](CO)C[C@H]3O)c3ncnc(N)c23)cc1 [FH9574, 4-amino-5-(4-isopropylphenyl)-N7-(3′-deoxy-β-D-ribofuranosyl)-pyrrolo[2,3-d]pyrimidine]
[1]; [4]
  EC50: 8.5 µM
[2]; [5]
  EC50: 55.9 µM
MRC-5 fibroblasts
  EC50: 24.9 µM
T. brucei Squib 427; [6]
  EC50: > 64 µM

## Nc1ncnc2c1c(-c1ccc3ccccc3c1)cn2[C@@H]1O[C@H](CO)C[C@H]1O [FH9575, 4-amino-5-(2-naftyl)-N7-(3′-deoxy-β-D-ribfuranosyl)-pyrrolo[2,3-d]pyrimidine]
[1]; [4]
  EC50: 0.72 µM
[2]; [5]
  EC50: 2 µM
MRC-5 fibroblasts
  EC50: 5 µM
T. brucei Squib 427; [6]
  EC50: 18.6 µM

## CCSC[C@@H]1C[C@@H](O)[C@H](n2cc(Br)c3c(N)ncnc32)O1 [FH9590, 4-amino-5-bromo-N7-(3′-deoxy-5′-thio-ethyl-β-D-ribofuranosyl)-pyrrolo[2,3-d]pyrimidine]
[1]; [4]
  EC50: 35.7 µM
[2]; [5]
  EC50: 10.6 µM
MRC-5 fibroblasts
  EC50: 25.8 µM
T. brucei Squib 427; [6]
  EC50: 32.9 µM

## Nc1ncnc2c1c(SC(F)(F)F)cn2[C@@H]1O[C@H](CO)C[C@H]1O [FH9605, 4-amino-5-trifluoromethylthio-N7-(3′-deoxy-β-D-ribofuranosyl)-pyrrolo[2,3-d]pyrimidine]
[1]; [4]
  EC50: 26 µM
[2]; [5]
  EC50: 21 µM
MRC-5 fibroblasts
  EC50: 18.6 µM
T. brucei Squib 427; [6]
  EC50: 27.2 µM

## Nc1ncnc2c1ccn2[C@@H]1O[C@H](COS(N)(=O)=O)C[C@H]1O [FH9608, 4-amino-N7-(3′-deoxy-5′-O-sulfamoyl-β-D-ribofuranosyl)-pyrrolo[2,3-d]pyrimidine]
[1]; [4]
  EC50: 9.91 µM
[2]; [5]
  EC50: 0.87 µM
MRC-5 fibroblasts
  EC50: 5.09 µM
T. brucei Squib 427; [6]
  EC50: 4.6 µM

## CO[C@@H]1C[C@@H](CO)O[C@H]1n1cc(Br)c2c(N)ncnc21 [FH9616, 4-amino-5-bromo-N7-(2′-O-methyl-3′-deoxy-β-D-ribofuranosyl)-pyrrolo[2,3-d]pyrimidine]
[1]; [4]
  EC50: > 64 µM
[2]; [5]
  EC50: 25.4 µM
MRC-5 fibroblasts
  EC50: > 64 µM
T. brucei Squib 427; [6]
  EC50: 32.5 µM

## Nc1ncnc2c1cc(Br)n2[C@@H]1O[C@H](CO)C[C@H]1O [FH10622, 4-amino-6-bromo-N7-(3′-deoxy-β-D-ribfuranosyl)-pyrrolo[2,3-d]pyrimidine]
[1]; [4]
  EC50: > 64 µM
[2]; [5]
  EC50: 1.02 µM
MRC-5 fibroblasts
  EC50: > 64 µM
T. brucei Squib 427; [6]
  EC50: 4.97 µM

## COC[C@@H]1C[C@@H](O)[C@H](n2cc(Br)c3c(N)ncnc32)O1 [FH10626, 4-amino-5-bromo-N7-(3′-deoxy-5′-O-methyl-β-D-ribofuranosyl)-pyrrolo[2,3-d]pyrimidine]
[1]; [4]
  EC50: 50.4 µM
[2]; [5]
  EC50: 18.7 µM
MRC-5 fibroblasts
  EC50: 22.7 µM
T. brucei Squib 427; [6]
  EC50: 32 µM

## Nc1ncnc2c1c(Br)cn2[C@H]1CC[C@@H](CO)O1 [FH10638, 4-amino-5-bromo-N7-(2′,3′-dideoxy-β-D-ribofuranosyl)-pyrrolo[2,3-d]pyrimidine]
[1]; [4]
  EC50: 43.3 µM
[2]; [5]
  EC50: 24.4 µM
MRC-5 fibroblasts
  EC50: 16.4 µM
T. brucei Squib 427; [6]
  EC50: 57.9 µM

## Cc1cccc(-c2cn([C@@H]3O[C@H](CO)C[C@H]3O)c3ncnc(N)c23)c1 [FH10639, 4-amino-5-(3-methylphenyl)-N7-(3′-deoxy-β-D-ribofuranosyl)-pyrrolo[2,3-d]pyrimidine]
[1]; [4]
  EC50: 5.15 µM
[2]; [5]
  EC50: 11.2 µM
MRC-5 fibroblasts
  EC50: > 64 µM
T. brucei Squib 427; [6]
  EC50: 30.5 µM

## Nc1ncnc2c1c(-c1cccc(C(F)(F)F)c1)cn2[C@@H]1O[C@H](CO)C[C@H]1O [FH10640, 4-amino-5-(3-trifluoromethylphenyl)-N7-(3′-deoxy-β-D-ribofuranosyl)-pyrrolo[2,3-d]pyrimidine]
[1]; [4]
  EC50: 11.2 µM
[2]; [5]
  EC50: 1.77 µM
MRC-5 fibroblasts
  EC50: 49.6 µM
T. brucei Squib 427; [6]
  EC50: 8.6 µM

## COc1ccc(-c2cn([C@@H]3O[C@H](CO)C[C@H]3O)c3ncnc(N)c23)cc1Cl [FH10645]
[1]; [4]
  EC50: 3.3 µM
[2]; [5]
  EC50: 2.51 µM
MRC-5 fibroblasts
  EC50: > 64 µM
T. brucei Squib 427; [6]
  EC50: 7.13 µM

## Cc1ccc(-c2cn([C@@H]3O[C@H](CO)C[C@H]3O)c3ncnc(N)c23)cc1C [FH10653, 4-amino-5-(3,4-dimethylphenyl)-N7-(3′-deoxy-β-D-ribofuranosyl)-pyrrolo[2,3-d]pyrimidine]
[1]; [4]
  EC50: 1.37 µM
[2]; [5]
  EC50: 2.17 µM
MRC-5 fibroblasts
  EC50: 22.3 µM
T. brucei Squib 427; [6]
  EC50: 8.81 µM

## Nc1ncnc2c1c(-c1ccc(F)cc1)cn2[C@@H]1O[C@H](CO)C[C@H]1O [FH10680, 4-amino-5-(4-fluorophenyl)-N7-(3′-deoxy-β-D-ribofuranosyl)-pyrrolo[2,3-d]pyrimidine]
other
  melting point: 186 to 187 °C
[1]; [7]
  EC50: 0.64 µM
[3]
  EC50: > 64 µM

## Nc1ncnc2c1c(-c1ccc(F)c(Cl)c1)cn2[C@@H]1O[C@H](CO)C[C@H]1O [FH10681, 4-amino-5-(3-chloro-4-fluorophenyl)-N7-(3′-deoxy-β-D-ribofuranosyl)-pyrrolo[2,3-d]pyrimidine]
other
  melting point: 178 °C
[1]; [7]
  EC50: 0.3 µM
[3]
  EC50: 45.5 µM

## Nc1ncnc2c1c(-c1ccc(F)c(F)c1)cn2[C@@H]1O[C@H](CO)C[C@H]1O [FH10682, 4-amino-5-(3,4-difluorophenyl)-N7-(3′-deoxy-β-D-ribofuranosyl)-pyrrolo[2,3-d]pyrimidine]
other
  melting point: 218 °C
[1]; [7]
  EC50: 0.33 µM
[3]
  EC50: > 64 µM

## Nc1ncnc2c1c(-c1ccc3ccccc3n1)cn2[C@@H]1O[C@H](CO)[C@@H](O)[C@H]1O [MS1017]
[1]; Table 5, average of 2-4 independent replicates
  EC50: 34.1 µM
[2]; Table 4, average of 2-6 independent determinations, read-out: T.b. rhod. EC50
  EC50: 3.72 µM
MRC-5 fibroblasts
  EC50: > 64 µM
T. brucei Squib 427; Table 4, average of 2-6 independent determinations, read-out: T.b. brucei EC50
  EC50: 6.45 µM
